Laboratory results as given in US11319279B2, “Antimicrobial compound and use thereof” (priority 2014, dated 2022).
Values after ≈ are worked out from the molar mass of the structure shown. Read-outs that look alike come from different tables or passages of the source.

Columns and labels:
[1] = tested on: Enterococcus faecalis KTCT 5191; assay: MIC by broth microdilution; details: for MIC: Enterococcus faecalis, KCTC5191, 20 h
Protocol: (§1) A test microorganism was cultured in Mueller Hinton broth (MHB) and the antimicrobial activity was measured by the broth microdilution method. […] The compound was diluted in dimethylsulfoxide (DMSO) and the experiment was performed by adjusting the DMSO concentration to a 1/100 level. After culturing for 20 hours, the OD value was measured at 650 nm and the growth of the microorganism was examined.

[2] = tested on: Pseudomonas aeruginosa KTCT 2004; assay: MIC by broth microdilution; details: KCTC2004, 20 h
Protocol: as §1

MRSA CCARM 3167 = assay: MIC by broth microdilution; format: cell-based, methicillin-resistant Staphylococcus aureus; details: for MIC: Staphylococcus aureus, MRSA CCARM 3167, MHB, 20 hours
[3] = tested on: Streptococcus pneumoniae KTCT 5412; assay: MIC by broth microdilution; details: KCTC5412, 20 h
Protocol: as §1

[4] = tested on: Klebsiella pneumoniae KCTC 22057; assay: MIC by broth microdilution; format: cell-based; details: KCTC22057, MHB, 20 hours
E. coli KTCT 1682 = assay: MIC by broth microdilution; format: cell-based; details: Escherichia coli, KCTC1682; E. coli KTCT 1682 (KCTC 1682 in Table 4); MHB, 20 hours
E. coli CCARM 1356 = assay: MIC by broth microdilution; format: cell-based, Escherichia coli; details: for MIC: Escherichia coli, CCARM1356, E. coli CCARM 1356, MHB, 20 hours
[5] = tested on: Staphylococcus epidermidis KTCT 3958; assay: MIC by broth microdilution; format: cell-based
QRSA CCARM 3505 = assay: MIC by broth microdilution; format: cell-based, quinolone-resistant Staphylococcus aureus; details: Staphylococcus aureus, CCARM3505, MHB, 20 hours
Escherichia coli = assay: MIC by broth microdilution, summary over E. coli strains; format: cell-based; details: range over E. coli strains of Table 2
[6] = tested on: Klebsiella aerogenes KTCT 2619; assay: MIC by broth microdilution; format: cell-based; details: KTCT2619, MHB, 20 hours
[7] = tested on: Klebsiella aerogenes and Pseudomonas aeruginosa; assay: MIC by broth microdilution, summary over Klebsiella and Pseudomonas strains; format: cell-based; details: range over strains of Table 2
MRSA CCARM 3506 = assay: MIC by broth microdilution; format: cell-based, methicillin-resistant Staphylococcus aureus; details: Staphylococcus aureus, MHB, 20 hours
[8] = tested on: Salmonella typhimurium KTCT 1926; assay: MIC by broth microdilution; format: cell-based; details: Salmonella enterica, MHB, 20 hours
[9] = tested on: MRSA (CCARM3167, CCARM3506) and QRSA (CCARM 3505, CCARM 3519); assay: MIC by broth microdilution, summary over MRSA and QRSA strains; format: cell-based; details: Staphylococcus aureus; range over MRSA CCARM3167, CCARM3506 and QRSA CCARM 3505, CCARM 3519; read-out: MICs in MRSA and QRSA
[10] = tested on: Bacillus subtilis KCTC 1021; assay: MIC by broth microdilution; format: cell-based; details: KCTC1021, MHB, 20 hours
[11] = tested on: Acinetobacter calcoaceticus KTCT 2357; assay: MIC by broth microdilution; format: cell-based
[12] = tested on: Staphylococcus aureus 503; assay: MIC by broth microdilution; format: cell-based; details: MHB, 20 hours
S. aureus = assay: MIC by broth microdilution, summary over S. aureus strains; format: cell-based; details: Staphylococcus aureus; range over S. aureus strains of Table 2
QRSA CCARM 3519 = assay: MIC by broth microdilution; format: cell-based, quinolone-resistant Staphylococcus aureus; details: Staphylococcus aureus, CCARM3519, MHB, 20 hours
[13] = tested on: Acinetobacter baumannii KCTC 2508; assay: MIC by broth microdilution; format: cell-based; details: KCTC2508, MHB, 20 hours
[14] = tested on: Bacillus subtilis KTCT 1661; assay: MIC by broth microdilution; format: cell-based
VRE = assay: Antimicrobial activity against VRE; format: cell-based, vancomycin resistant enterococcus; details: statement in words, refers to Example 5
[15] = tested on: Enterococcus faecalis KTCT 3511; assay: MIC by broth microdilution; format: cell-based
[16] = tested on: Staphylococcus aureus RN 4220; assay: MIC by broth microdilution; format: cell-based; details: RN4220, 20 h
VISA = assay: Antimicrobial activity against VISA; format: cell-based, vancomycin intermediate-resistant S. aureus; details: statement in words, refers to Example 5
[17] = tested on: Pseudomonas aeruginosa KTCT 2742; assay: MIC by broth microdilution; format: cell-based
[18] = tested on: Staphylococcus aureus 209; assay: MIC by broth microdilution; format: cell-based; details: MHB, 20 hours

Row | SMILES | MIC [1] [µg/mL] | MIC [2] [µg/mL] | MIC (MRSA CCARM 3167) [µg/mL] | MIC [3] [µg/mL] | MIC [4] [µg/mL] | MIC (E. coli KTCT 1682) [µg/mL] | MIC (E. coli CCARM 1356) [µg/mL] | MIC [13] [µg/mL] | MIC [16] [µg/mL] | other results
1 | O=C(O)c1cn(C2CC2)c2cc(N3CCNCC3)c(F)cc2c1=O [Ciprofloxacin, reference compound] | 0.5 (≈ 1.51 µM) | 0.06 (≈ 0.181 µM) | 2 (≈ 6.04 µM) | 0.5 (≈ 1.51 µM) | 0.006 (≈ 0.0181 µM) | 0.003 (≈ 0.00905 µM) | 64 (≈ 193 µM) | – | – | –
2 | COC(C(N)=O)C(NC(=O)c1ccc(NC(=O)c2ccc([N+](=O)[O-])cc2)cc1)C(=O)Nc1ccc(C(=O)Nc2ccc(C(=O)Nc3ccc(C(=O)O)cc3OC(C)C)c(O)c2OC(C)C)cc1 (stereo not shown) [Coralmycin A] | 0.125 (≈ 0.136 µM) | 8 (≈ 8.7 µM) | 0.125 (≈ 0.136 µM) | 2 (≈ 2.17 µM) | 8 (≈ 8.7 µM) | 0.5 (≈ 0.544 µM) | 1 (≈ 1.09 µM) | 0.25 (≈ 0.272 µM) | 0.063 (≈ 0.0685 µM) | MIC ([5]; KTCT3958, Staphylococcus epidermidis KTCT 3958, MHB, 20 hours, read-out: MIC): 0.125 µg/mL (≈ 0.136 µM); MIC (QRSA CCARM 3505): 1 µg/mL (≈ 1.09 µM); MIC (Escherichia coli): 0.5 to 1 µg/mL (≈ 0.544 to 1.09 µM); MIC [6]: 8 µg/mL (≈ 8.7 µM); MIC [7]: 8 to 32 µg/mL (≈ 8.7 to 34.8 µM); MIC (MRSA CCARM 3506): 0.25 µg/mL (≈ 0.272 µM); MIC [8]: 0.063 µg/mL (≈ 0.0685 µM); MIC [9]: 0.1 to 1 µg/mL (≈ 0.109 to 1.09 µM); MIC [10]: 0.063 µg/mL (≈ 0.0685 µM); MIC ([11]; KTCT2357, Acinetobacter calcoaceticus KTCT 2357, MHB, 20 hours, read-out: MIC): 0.25 µg/mL (≈ 0.272 µM); MIC [12]: 1 µg/mL (≈ 1.09 µM); MIC (S. aureus): 0.06 to 1 µg/mL (≈ 0.0652 to 1.09 µM); MIC (QRSA CCARM 3519): 1 µg/mL (≈ 1.09 µM); MIC ([14]; KTCT1661, Bacillus subtilis KTCT 1661, MHB, 20 hours, read-out: MIC): 0.125 µg/mL (≈ 0.136 µM); antimicrobial activity against VRE (VRE): confirmed; MIC ([15]; KTCT3511, Enterococcus faecalis KTCT 3511, MHB, 20 hours, read-out: MIC): 0.125 µg/mL (≈ 0.136 µM); antimicrobial activity against VISA (VISA): confirmed; MIC ([17]; KTCT2742, Pseudomonas aeruginosa KTCT 2742, MHB, 20 hours, read-out: MIC): 32 µg/mL (≈ 34.8 µM); MIC [18]: 0.125 µg/mL (≈ 0.136 µM)
3 | COC(C(N)=O)C(NC(=O)c1ccc(NC(=O)c2ccc([N+](=O)[O-])cc2)cc1)C(=O)Nc1ccc(C(=O)Nc2ccc(C(=O)Nc3ccc(C(=O)O)c(O)c3OC(C)C)c(O)c2OC(C)C)cc1 (stereo not shown) [Coralmycin B] | 0.03 (≈ 0.0321 µM) | 4 (≈ 4.27 µM) | 0.015 (≈ 0.016 µM) | 0.25 (≈ 0.267 µM) | 2 (≈ 2.14 µM) | 0.125 (≈ 0.134 µM) | 0.125 (≈ 0.134 µM) | 0.125 (≈ 0.134 µM) | 0.015 (≈ 0.016 µM) | higher antimicrobial activity compared to ciprofloxacin ([1]; in Enterococcus faecalis): at least 16 fold; higher antimicrobial activity compared to ciprofloxacin (MRSA CCARM 3167; in MRSA): at least 133 fold; higher antimicrobial activity compared to ciprofloxacin (E. coli CCARM 1356; in Escherichia coli): at least 426 fold
4 | Oc1cc(Cl)ccc1Oc1ccc(Cl)cc1Cl [Triclosan, reference compound] | > 64 | > 64 | – | 64 (≈ 221 µM) | – | – | – | – | – | MIC ([5]; Staphylococcus epidermidis, KTCT3958, 20 h): 0.25 µg/mL (≈ 0.863 µM); MIC ([11]; Acinetobacter calcoaceticus, KTCT2357, 20 h): > 0.5 µg/mL; MIC ([14]; Bacillus subtilis, KTCT1661, 20 h): 2 µg/mL (≈ 6.91 µM); MIC ([15]; Enterococcus faecalis, KTCT3511, 20 h): > 64 µg/mL; MIC ([17]; Pseudomonas aeruginosa, KTCT2742, 20 h): > 64 µg/mL
